Source: paper PMC11288027, “Exploring novel microbial metabolites and drugs for inhibiting Clostridioides difficile” (mSphere, 2024)
Converted amounts (≈) assume the structure as drawn. “And” between values parts separate entries of the source, which are not always exact repeats. Equal values may be shown once. Read-outs that look alike come from different tables or passages of the source.

What was measured:
[1] = test system: C. difficile ATCC BAA-1870; assay: MIC of active hits by broth microdilution; conditions: C. difficile ATCC BAA-1870, 48 h anaerobic; for MIC: Clostridioides difficile, ATCCBAA1870, 48 h
[2] = test system: C. difficile clinical isolates; assay: MIC against a panel of 20 C. difficile clinical isolates (broth microdilution); assay type: cell-based, Clostridioides difficile; conditions: Clostridioides difficile; for MIC50: concentration that inhibited 50% of the 20 C. difficile clinical isolates, read-out: MIC50; for MIC: read-out: minimum inhibitory concentration (MIC)
[3] = test system: B. fragilis; assay: MIC against human gut microbiota; assay type: cell-based, Bacteroides fragilis; conditions: Bacteroides fragilis, anaerobic, read-out: minimum inhibitory concentration (MIC)
[4] = test system: B. dorei; assay: MIC against human gut microbiota; assay type: cell-based, Bacteroides dorei; conditions: Phocaeicola dorei; B. dorei HM- 719, BHIS broth, anaerobic; read-out: minimum inhibitory concentration (MIC)
[5] = test system: Bif. breve; assay: MIC against human gut microbiota; assay type: cell-based, Bifidobacterium breve; conditions: Bifidobacterium breve, ATCC15700; Bif. breve ATCC 15700, BHIS broth, anaerobic; read-out: minimum inhibitory concentration (MIC)
[6] = test system: Bif. angulatum; assay: MIC against human gut microbiota; assay type: cell-based, Bifidobacterium angulatum; conditions: Bifidobacterium angulatum; Bif. angulatum HM- 1189, BHIS broth, anaerobic; read-out: minimum inhibitory concentration (MIC)
[7] = test system: Bif. adolescentis; assay: MIC against human gut microbiota; assay type: cell-based, Bifidobacterium adolescentis; conditions: Bifidobacterium adolescentis; Bif. adolescentis HM- 633, BHIS broth, anaerobic; read-out: minimum inhibitory concentration (MIC)
[8] = test system: Bif. longum; assay: MIC against human gut microbiota; assay type: cell-based, Bifidobacterium longum; conditions: Bifidobacterium longum, anaerobic, read-out: minimum inhibitory concentration (MIC)
[9] = test system: E. faecium; assay: MIC against human gut microbiota; assay type: cell-based, Enterococcus faecium; conditions: Enterococcus faecium; E. faecium HM-202, TSB, aerobic; read-out: minimum inhibitory concentration (MIC)
[10] = test system: E. fecalis; assay: MIC against human gut microbiota; assay type: cell-based, Enterococcus faecalis; conditions: Enterococcus faecalis; E. fecalis HM-970, TSB, aerobic; read-out: minimum inhibitory concentration (MIC)
[11] = test system: L. casei; assay: MIC against human gut microbiota; assay type: cell-based; conditions: Lacticaseibacillus casei, ATCC334; L. casei ATCC 334, MRS broth, 5% CO2; read-out: minimum inhibitory concentration (MIC)
[12] = test system: L. brevis; assay: MIC against human gut microbiota; assay type: cell-based, Lactobacillus brevis; conditions: Levilactobacillus brevis, ATCC14864; L. brevis ATCC-14864, MRS broth, 5% CO2; read-out: minimum inhibitory concentration (MIC)
[13] = test system: L. rhamanosus; assay: MIC against human gut microbiota; assay type: cell-based, Lactobacillus rhamnoosus; conditions: Lactobacillus, ATCC53103; L. rhamanosus ATCC-53103, MRS broth, 5% CO2; read-out: minimum inhibitory concentration (MIC)
[14] = test system: C. difficile ATCC BAA-1870; assay: Time-kill assay at 5 × MIC; conditions: C. difficile ATCC BAA-1870, ~10^6 CFU/mL, up to 24 h

With `Cc1cc(SCc2sc(-c3ccc(C(F)(F)F)cc3)nc2C)ccc1OCC(=O)O` [GW 501516] the MIC [1] was 16 µM and 14.5 µg/mL.
In the case of `CCc1c(Cl)c(O)c(Cl)c(O)c1C(=O)O[C@H]1[C@H](O)[C@H](OC)[C@H](OC/C2=C\C=C\C[C@H](O)/C(C)=C/[C@H](CC)[C@@H](O[C@@H]3OC(C)(C)[C@@H](OC(=O)C(C)C)[C@H](O)[C@@H]3O)/C(C)=C/C(C)=C/C[C@@H]([C@@H](C)O)OC2=O)O[C@@H]1C` [Fidaxomicin], the MIC50 ([2]; 48 h) is reported as 0.015 mg/L (≈ 0.0142 µM), the MIC ([2]; ATCC630, C. difficile ATCC 630) is reported as ≤ 0.0078 mg/L and the MIC ([2]; ATCC43255, C. difficile ATCC 43255) is reported as 0.03 mg/L (≈ 0.0284 µM). The MIC ([2]; ATCCBAA1870, C. difficile ATCC BAA-1870 (Ribotype-027), purchased compounds, panel test) was ≤ 0.0078 mg/L, the MIC ([2]; C. difficile CD-1 (Ribotype-027)) was 0.06 mg/L (≈ 0.0567 µM) and the MIC ([2]; C. difficile CD-6 (Ribotype-027)) was 0.06 mg/L (≈ 0.0567 µM). The MIC ([2]; C. difficile CD-10(Ribotype-027)) was 0.03 mg/L (≈ 0.0284 µM), the MIC ([2]; C. difficile CD-12) was 0.03 mg/L (≈ 0.0284 µM) and the MIC ([2]; C. difficile CD-13) was ≤ 0.0078 mg/L. For the same molecule, the MIC ([2]; C. difficile CD-15) was 0.015 mg/L (≈ 0.0142 µM), the MIC ([2]; C. difficile CD-22) was ≤ 0.0078 mg/L and the MIC ([2]; C. difficile CD-23) was 0.06 mg/L (≈ 0.0567 µM). The MIC ([2]; C. difficile CD-24) was ≤ 0.0078 mg/L, the MIC ([2]; C. difficile CD-26 (Ribotype-027)) was 0.06 mg/L (≈ 0.0567 µM) and the MIC ([2]; C. difficile CD-28) was 0.015 mg/L (≈ 0.0142 µM). The MIC ([2]; C. difficile CD-29 (Ribotype-027)) was ≤ 0.0078 mg/L, the MIC ([2]; C. difficile CD-30) was 0.015 mg/L (≈ 0.0142 µM) and the MIC ([2]; C. difficile NR-49302) was 0.03 mg/L (≈ 0.0284 µM). For the same molecule, the MIC ([2]; C. difficile NR-49304) was ≤ 0.0078 mg/L, the MIC ([2]; C. difficile NR-49308) was ≤ 0.0078 mg/L and the MIC ([2]; C. difficile NR-49319) was 0.03 mg/L (≈ 0.0284 µM). For the same molecule, the MIC50 [2] was 0.015 mg/L (≈ 0.0142 µM), the MIC90 ([2]; concentration that inhibited 90% of the 20 C. difficile clinical isolates, read-out: MIC90) was 0.06 mg/L (≈ 0.0567 µM) and the MIC ([3]; B. fragilis HM- 709, BHIS broth) was > 256 mg/L. For the same molecule, the MIC ([3]; B. fragilis HM- 718, BHIS broth) was > 256 mg/L, the MIC [4] was > 256 mg/L and the MIC [5] was ≤ 2 mg/L. The MIC [6] was ≤ 2 mg/L, the MIC [7] was ≤ 2 mg/L and the MIC ([8]; Bif. longum HM- 845, BHIS broth) was ≤ 2 mg/L. The MIC ([8]; Bif. longum HM- 846, BHIS broth) was ≤ 2 mg/L, the MIC ([8]; Bif. longum HM- 847, BHIS broth) was ≤ 2 mg/L and the MIC ([8]; Bif. longum HM- 848, BHIS broth) was ≤ 2 mg/L. The MIC [9] was ≤ 2 mg/L, the MIC [10] was ≤ 2 mg/L and the MIC [11] was 8 mg/L (≈ 7.56 µM). For the same molecule, the MIC [12] was 64 mg/L (≈ 60.5 µM), the MIC [13] was 8 mg/L (≈ 7.56 µM) and the “time to eliminate / clear C. difficile” value [14] was ≤ 24 h. The MIC [1] was ≤ 0.0078 mg/L.
For Ivermectin, the “MIC (μM)” value [1] was 16 µM and the “MIC (μg/mL)” value [1] was 14 µg/mL.
In the case of Avermectin B1, the “MIC (μM)” value [1] is reported as 16 µM and the “MIC (μg/mL)” value [1] is reported as 27.71 µg/mL.
